Test results from publication PMC4861708 (Frontiers in Cell and Developmental Biology, 2016).
In brackets after ≈: the same amount, converted by molar mass. Where a SMILES comes first, the peptide text is derived from it. [ ]: non-standard residue; d: D form. The star is where a group is joined. Orn(α-tetramethylguanidino) = CN(C)C(=N[C@@H](CCCN)C(=O)*)N(C)C; Orn = NCCC[C@H](N)C(=O)O

Columns and labels:
in vitro [1] = conditions: mouse, mouse serum
Procedure: Peptide solutions (1 g/L) were added to mouse serum to obtain final concentrations of 70 mg/L peptide and incubated under constant shaking at 37°C. After 0, 1, 2, 3, and 6 h aliquots (95 μL) were precipitated with aqueous TCA (25 μL, 15% w/v), incubated for 10 min on ice, and centrifuged (5 min, 12,000 × g, Eppendorf mini spin centrifuge). An aliquot of the supernatant (95 μL) was neutralized with sodium hydroxide (8 μL, 1 mol/L) and diluted with aqueous acetonitrile solution (3% acetonitrile, 0.1% TFA; 200 μL). Peptides were quantified by the peak areas obtained by analytical RP-HPLC on a Jupiter C18-column (ID: 2 mm) using a linear aqueous acetonitrile gradient with 0.1% (v/v) TFA (absorbance recorded at 214 nm). Peak areas of all time points were normalized to the initial peak area obtained after “0 min incubation” (= 100%). Experiments were carried out as triplicates in parallel and half-life times were calculated using GraphPad Prism 5.0.

[2] = test system: Primary rat cardiomyocytes; test: in vitro; assay type: cell-based; conditions: 24 h
Procedure: (§1) Human embryonic kidney (HEK293) and HeLa cells were cultured in Dulbecco's modified Eagle's/Ham's F-12 medium [DMEM/F-12 (1:1)] supplemented with FBS (10% v/v), penicillin, and streptomycin (1000 units each). Primary rat cardiomyocytes (Innoprot, Elexalde Derio, Spain) were grown in medium supplemented with FBS (20% v/v), horse serum (5% v/v), L-glutamine (2 mmol/L), sodium pyruvate (2 mmol/L), MEM non-essential amino acids (Gibco, 0.1 mmol/L), penicillin, and streptomycin (1000 units each). Surfaces for cardiomyocyte growth were coated with attachment factor first. Cells (20,000/well) were seeded into a 96-well plate (PS, sterile, flat bottom), incubated for 24 h (37°C, 5% CO2), and washed twice with PBS (100 μl/well) prior to adding colorless medium (88 μL) and peptide solution (12 μL; 5, 2.5, 1.25, […], and 0.625 g/L in PBS). Positive controls were triton X-100 (1%, v/v) and melittin (60 mg/L) as lytic peptide, whereas PBS (12%, v/v) served as negative control. After an incubation period of 24 h, supernatant (25 μL) was mixed with lactate dehydrogenase (LDH) substrate (175 μL; 0.57 mmol/L sodium pyruvate, 0.24 mmol/L NADH disodium salt, 32 mmol/L potassium dihydrogen phosphate, 66 mmol/L dipotassium phosphate) in 96-well plates (PS, sterile, flat bottom). Absorbance was recorded at 340 nm every 3 min for 30 min on the Paradigm microplate reader. Due to the total release of LDH upon triton X-100 treatment, the control contained high LDH concentrations resulting in a fast substrate turnover that was only linear for the first 6 min.
(§2) The MTT cell viability assay relied on the same cell culture. Remaining medium was replaced by a mixture of fresh colorless medium (100 μL) and MTT (10 μL; 5 g/L in PBS) and incubated for 4 h (37°C, 5% CO2). A solution of sodium dodecyl sulfate (100 μL; 10%, w/v) dissolved in hydrochloric acid (10 mmol/L) was added, incubated (16 h), and the absorbance recorded at 590 nm relative to the reference at 650 nm (Paradigm microplate reader). The relative cell viability was calculated by [(ODPeptide − ODTriton)/(ODPBS − ODTriton)] × 100% and half-maximal inhibitory concentrations (IC50) with an Excel-template from cell biology protocols (www.sciencegateway.org/ protocols/cellbio/drug/hcic50.htm). For statistical analysis an unpaired t-test was applied using GraphPad Prism 5.0.

in vitro [3] = assay type: cell-based, rat; conditions: rat
Procedure: as §1, §2

P. aeruginosa DSM 9644 = assay type: cell-based, Pseudomonas aeruginosa; conditions: DSM 9644, 24 h
Method in brief: (§3)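 Broth microdilution MIC: P. aeruginosa strains in 50 or 100% MHB, K. pneumoniae in TSB; peptides 512–4 μg/mL final. Inoculum from 1.5 × 10^7 cells/mL suspension, also high density 5 × 10^8 cells/mL; 37°C, 24 h, growth read at OD595.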

in vitro [4] = assay type: cell-based; conditions: human
[5] = Quartz crystal microbalance, membrane interaction; assay type: binding
Procedure: Data were acquired with the Q-Sense E4 system (Q-sense, Sweden using polished, gold-coated, AT-cut quartz sensors with a fundamental frequency of ca. 5 MHz (Q-Sense, Västra Frölunda, Sweden) (Mechler et al., [2007]; McCubbin et al., [2011]). Briefly, sensors were cleaned with hydrogen peroxide (6% w/v) and aqueous ammonia (5.6% w/v) for 20 min (70–75°C), washed with water, and then activated with 3-mercaptopropionic acid (1 mmol/L in isopropanol) overnight. Liposomes consisting of DMPC and DMPG (molar ratio of 4:1) were deposited onto the sensors, washed with “high salt” PBS (20 mmol/L potassium phosphate, 0.1 mol/L NaCl, pH 6.9) and then with “low salt” PBS (10 mmol/L potassium phosphate, 30 mmol/L NaCl, pH 6.9). The system was equilibrated at 19.1 ± 0.1°C with “high salt” PBS, prior to the introduction of peptide solutions (2; 5; 10 and 20 μmol/L, 1 mL each in “high salt” PBS) at a flow rate of 50 μL/min over 20 min followed by an incubation, without any flow. Afterwards the “high salt” PBS was again introduced at 300 μL/min to determine if any surface materials could be removed from the sensor. Changes in the sensor frequency (Δf) and dissipation (ΔD) were monitored for the third, fifth, seventh, and ninth harmonic using Q-Soft (Q-Sense) and analyzed using Origin 8 software.

HeLa cells = test system: HeLa cells; design: method as in Berthold et al., 2013; Bluhm et al., 2015; conditions: ref Berthold et al., 2013, Bluhm et al., 2015; cited from earlier work
[6] = test system: P. aeruginosa DSM 3227 (ATCC 19429); assay type: cell-based, Pseudomonas aeruginosa; conditions: DSM 3227, 24 h
Method in brief: as §3

[7] = Half-life time against serum proteases, serum (abstract)
[8] = Half-life time mouse serum, 37°C

## CC(C)C[C@H](NC(=O)[C@H](CCCNC(=N)N)NC(=O)[C@@H]1CCCN1C(=O)[C@H](Cc1c[nH]cn1)NC(=O)[C@@H]1CCCN1C(=O)[C@@H]1CCCN1C(=O)[C@H](CCCNC(=N)N)NC(=O)[C@@H]1CCCN1C(=O)[C@H](CCCNC(=N)N)NC(=O)[C@@H]1CCCN1C(=O)[C@H](CCCN)NC(=O)[C@H](Cc1ccc(O)cc1)NC(=O)[C@@H](NC(=O)[C@@H]1CCCN1C(=O)[C@H](CCCNC(=N)N)NC(=O)[C@H](CCCN)NC(=O)[C@H](Cc1c[nH]c2ccccc12)NC(=O)[C@H](CCCN)NC(=O)[C@H](Cc1c[nH]c2ccccc12)NC(=O)[C@H](CCCN)NC(=O)[C@H](Cc1c[nH]c2ccccc12)NC(=O)[C@H](CCCN)N=C(N(C)C)N(C)C)C(C)C)C(=O)O [Api794, gu-O(WO)3RPVYOPRPRPPHPRL-OH] ({Orn(α-tetramethylguanidino)}-W[Orn]W[Orn]W[Orn]RPVY[Orn]PRPRPPHPRL-OH)
In vitro [1]; [7]
  half-life at 70 mg/L: > 5 h
In vitro [1]; [8]
  half-life at 70 mg/L: 5.18 h
[2]
  IC50 on cell viability: >600 µg/mL
In vitro [3]
  viability at 24 h, 0.6 g/L: 64 ± 3%
P. aeruginosa DSM 9644
  MIC P. aeruginosa DSM 9644: 16 µg/mL (≈ 5.4 µM)

## CC[C@H](C)[C@H](NC(=O)[C@H](CCCN)N=C(N(C)C)N(C)C)C(=O)N[C@@H](CCCN)C(=O)N[C@H](C(=O)N[C@@H](CCCN)C(=O)N[C@@H](CCCNC(=N)N)C(=O)N1CCC[C@H]1C(=O)N[C@H](C(=O)N[C@@H](Cc1ccc(O)cc1)C(=O)N[C@@H](CCCN)C(=O)N1CCC[C@H]1C(=O)N[C@@H](CCCNC(=N)N)C(=O)N1CCC[C@H]1C(=O)N[C@@H](CCCNC(=N)N)C(=O)N1CCC[C@H]1C(=O)N1CCC[C@H]1C(=O)N[C@@H](Cc1c[nH]cn1)C(=O)N1CCC[C@H]1C(=O)N[C@@H](CCCNC(=N)N)C(=O)N[C@@H](CC(C)C)C(=O)O)C(C)C)[C@@H](C)CC [Api795, gu-O(IO)2RPVYOPRPRPPHPRL-OH] ({Orn(α-tetramethylguanidino)}-I[Orn]I[Orn]RPVY[Orn]PRPRPPHPRL-OH)
In vitro [1]; [7]
  half-life at 70 mg/L: > 5 h
In vitro [1]; [8]
  half-life at 70 mg/L: 5.9 h
[2]
  IC50 on cell viability: >600 µg/mL
In vitro [3]
  viability at 24 h, 0.6 g/L: 83 ± 4%
In vitro [4]
  viability at 24 h, 0.6 g/L: 78 ± 14%
[5]; 2 μmol/L, DMPC:DMPG 4:1
  QCM Δf (peptide insertion): 9 Hz
[5]; 5, 10, and 20 μmol/L, DMPC:DMPG 4:1
  QCM Δf (peptide insertion): 6 Hz

## CC[C@H](C)[C@H](NC(=O)[C@H](Cc1ccc(O)cc1)NC(=O)[C@@H](NC(=O)[C@@H]1CCCN1C(=O)[C@H](CCCNC(=N)N)NC(=O)[C@H](CC(N)=O)NC(=O)[C@H](CC(N)=O)NC(=O)[C@H](CCCN)N=C(N(C)C)N(C)C)C(C)C)C(=O)N1CCC[C@H]1C(=O)N[C@@H](CCCNC(=N)N)C(=O)N1CCC[C@H]1C(=O)N[C@@H](CCCNC(=N)N)C(=O)N1CCC[C@H]1C(=O)N1CCC[C@H]1C(=O)N[C@@H](Cc1c[nH]cn1)C(=O)N1CCC[C@H]1C(=O)N[C@@H](CCCNC(=N)N)C(=O)N[C@@H](CC(C)C)C(=O)O [Api137, gu-ONNRPVYIPRPRPPHPRL-OH, reference compound] ({Orn(α-tetramethylguanidino)}-NNRPVYIPRPRPPHPRL-OH)
HeLa cells
  IC50 on cell viability: >600 µg/mL
[5]; 2-20 μmol/L, incubation period ii
  QCM change in dissipation (ΔD): No change
[5]; period iii, DMPC:DMPG 4:1
  QCM frequency loss upon washing with PBS buffer: ~ 2 Hz
[6]
  MIC P. aeruginosa DSM 3227: >256 µg/mL
